Reference: patent US5691348A, “Pyridyl imidazole derivatives and processes for the preparation thereof” (Daewoo Electronics Co., Ltd., priority 1994, dated 1997)

Key:
[1] = tested on: angiotensin II receptor; assay: Angiotensin II receptor binding assay ([3H] angiotensin II); set-up: species or system rat (Sprague-Dawley adrenal cortex/medulla; Wistar liver); settings: 25° C., 60 minutes, test concentration not given
Protocol: 1. Angiotensin II receptor binding assay
In accordance with the procedure disclosed in Chiu, A. T. et al., Eur. J. Pharm., 157, 13(1981), a ligand marked with a radioisotope was reacted with an angiotensin II receptor and the reactant was filtered with a glass fiber to remove unreacted ligand. After washing the filter, the amount of the remaining isotope was measured to determine the binding activity of the ligand, as described below in detail.
Sprague-Dawley rats and Wistar rats of 250 to 350 g (from The Korea Research Institute of Chemical Technology) were tested and the test procedures were carried out at 4° C., unless otherwise specified. Adrenal gland was separated from the Sprague-Dawley rats (liver, in the case of Wistar rats) into cortex and medulla. The separated adrenal cortex and medulla were washed with a sucrose buffer solution (0.2M sucrose, 1 mM EDTA, 10 mM Tris, Ph 7.2) and homogenized in the same buffer solution by using a Teflon pestle and a Brinkmann homogenizer. The homogenates were centrifuged at 3,000× g for 10 minutes to remove precipitates and further centrifuged at 12,000× g for 13 minutes. The final supernatants were centrifuged at 102,000× g for 1 hour to obtain precipitates, which were washed with a Tris buffer solution (50 mM Tris, 5 mM MgCl2, pH 7.2) and recentrifuged at 102,000× g for 1 hour. The resulting precipitates were immediately processed at the following step or stored at -70° C.
The precipitates were suspended in a Tris buffer solution. The amount of protein was determined by using a Bio-Rad DC protein analyzing kit and the protein concentration was adjusted to the amounts of: 0.2 to 0.3 mg/ml (Sprague-Dawley rat: adrenal cortex), 1.5 to 2.0 mg/ml (Sprague-Dawley rat: adrenal medulla), and 1.5 to 2.0 mg/ml (Wistar rat: liver). To the suspension, bovine serum albumin(BSA) was added to a concentration of 0.25 wt % and the resultant was immediately processed at the following step or stored at -70° C.
50 μl (based on ligand) of [^3 H] angiotensin II (NEN, NET-446) and 10 μl of each of the test compounds with various concentrations were added to the buffer solution (50 mM Tris (pH 7.2), 5 mM MgCl2, 0.25% BSA) to adjust the final volume to be 0.5 ml. 100 μl of the receptor suspension was added thereto and the resulting solution was reacted for 60 minutes while stirring in a water bath at 25° C. 3 ml of cold buffer solution for analysis was added to cease the reaction. The isotope which was bound to the receptor was isolated from the resultant by using Brandel Cell Harvester System with Whatman glass fiber GF/C. After washing the filter, the radioactivity of the filter was determined by using a liquid scintillation counter. Binding inhibition(%) of the test compound was calculated as follows:
Binding Inhibition(%)=[{(T-B)-(S-B)}/(T-B)]×100
wherein T is the radioactivity (cpm) of the reaction product untreated with the test compound, S is the radioactivity (cpm) of the reaction product treated with the test compound, and B is the radioactivity (cpm) of blank test.

[2] = tested on: renal hypertensive rat; assay: Blood pressure lowering effect in renal hypertension; format: in vivo, Sprague-Dawley rat; settings: intravenous or oral (not specified)
Excerpt: (§1) To induce renal hypertension, left renal artery of 4 week-old male Sprague-Dawley rat (from The Korea Research Institute of Chemical Technology) was ligated. The rat was anesthetized with ether and the surgical region on the left abdomen of the rat was shaved, disinfected, and then incised about 1 cm vertically. The renal artery near abdominal aorta was isolated carefully from surrounding tissues and veins, and then ligated completely with a suture (4/0 sterile surgical silk). The muscular strata and skin of the surgical area were sutured with a suture (4/0 sterile surgical silk). The surgical region was disinfected to prevent infection and thereafter, 200 to 250 mg/kg/day of cephazolin sodium was injected intramuscularly for 2 days. 6 to 8 days after the ligation, rats showing systolic pressure of more than 180 mmHg were selected for renal hypertension test. The blood pressure was determined by a tail-cuff method from the tail under unanesthetized condition (Gerold, M. et al., Arzneimittel-Forsch., 18, 1285(1968)).
(§2) Each of the compounds to be tested was administered intravenously or orally into the renal hypertensive rat. The blood pressure of the rat was determined by direct method (Chiu, A. T. et al., J. Pharmacol. Exp. Ther., 250, 867(1989)) using a catheter. The rat was anesthetized with ketamine hydrochloride (125 mg/kg, i.p.) and a catheter was filled with saline and inserted into a carotid artery and […]. The surgical area was sutured with a metal clip. The rat was relaxed at least 3 hours and the catheter in the carotid artery was adapted to an isotec pressure transducer to determine the blood pressure and heart rate with a physiograph (Linearcorder WR3310). After the blood pressure was stabilized, the test compound was administered intravenously or orally. For intravenous administration, the administered volume and washing volume were 1.0 ml/kg and 0.2 ml, respectively. The blood pressure and heart rate were measured in regular intervals up to 24 hours after the administration of the test compound and compared with those measured after the administration of the control compound Losartan.
(§3) The test compound was dissolved in 0.05N KOH for intravenous administration and suspended in Tween 80 for oral administration.

[3] = tested on: unanesthetized dogs; assay: Maximum blood pressure lowering effect in unanesthetized dogs at different amounts; format: in vivo, dog
Protocol: (§4) A number of dog was fed freely in a feeding room and those weighing 7 to 12 kg in good health were selected regardless of their gender.
(§5) The test dog was anesthetized with 30 mg/kg of pentobarbital sodium by intravenous injection and the left femoral artery and femoral vein were separated carefully. Silicone catheter, specially prepared and filled with saline treated with heparin (1,000 IU/ml), was cannulated into the blood vessels. After the surgery, the dog was constrained to measure the blood pressure continuously with Gould 2000 physiograph adapted to a Grass P23XL pressure transducer; and the heart rate was monitored with ECG/Biotacho amplifier. The dog was tested at least 2 days after the surgery.
(§6) 10 mg/kg of furosemide was injected intramuscularly 18 hours (in case of intravenous injection, 2 hours) before the beginning of the test (administration of the test compound) to improve the activity of renin in blood plasma. After the injection of furosemide, neither food nor water was provided. The test compound was suspended in Tween 80 and administered in an amount of 20 mg/kg orally. The blood pressure and heart rate were measured up to 8 hours after the administration of each test compound.
The maximum blood pressure lowering effect of the present compounds and the control compounds were determined in different amounts of administration using the same method as (i) and the results are given in Table 4.

[4] = tested on: renal hypertensive rat; assay: Blood pressure lowering effect with respect to dose (renal hypertensive rats); format: in vivo, Sprague-Dawley rat; settings: oral
Excerpt: as §1, §2, §3
The present compounds, Losartan(Dup 753) and the Merck compound were administrated orally to rats in 10, 3 and 1 mg/kg under the same condition as in (ii) and the blood pressure lowering effect was determined.

[5] = tested on: unanesthetized dogs; assay: Blood pressure variation with time in unanesthetized dogs; format: in vivo, dog; settings: for Maximum Blood Pressure Lowering Effect: 3 mg, oral
Protocol: as §4, §5
as §6, with “The test compound was suspended in Tween 80 and administered in an amount of 20 mg/kg orally.” left out

CCCCc1nc2cc(-c3cc[n+]([O-])cc3)c(CO)nc2n1Cc1ccc(-c2ccccc2-c2nn[nH]n2)cc1 [Example 2, 2-Butyl-5-hyroxymethyl-6-(1-oxy-pyridin-4-yl)-3-[2'-(1H-tetrazol-5-yl)-biphenyl-4-ylmethyl]-3H-imidazo[4,5-b]pyridine]
Binding Inhibition [1]: 96.9%

CCCCc1nc2cc(-c3cccc[n+]3[O-])c(C(=O)OC)nc2n1Cc1ccc(-c2ccccc2-c2nn[nH]n2)cc1 [Example 4, 2-Butyl-5-methoxycarbonyl-6-(1-oxy-pyridin-2-yl)-3-[2'-(1H-tetrazol-5-yl)-biphenyl-4-ylmethyl]-3H-imidazo[4,5-b]pyridine]
Binding Inhibition [1]: 92.1%

CCCCc1nc2cc(-c3cccc[n+]3[O-])c(C(=O)N(CC)CC)nc2n1Cc1ccc(-c2ccccc2-c2nn[nH]n2)cc1 [Example 5, 2-Butyl-6-(1-oxy-pyridin-2-yl)-3-[2'-(1H-tetrazol-5-yl)-biphenyl-4-ylmethyl]-3H-imidazo[4,5-b]pyridin-5-carboxylate Diethylamide]
Binding Inhibition [1]: 60.3%

CCCCc1nc2cc(-c3ccc[n+]([O-])c3)c(C)nc2n1Cc1ccc(-c2ccccc2-c2nn[nH]n2)cc1 [Example 6, 2-Butyl-5-methyl-6-(1-oxy-pyridin-3-yl)-3-[2'-(1H-tetrazol-5-yl)-biphenyl-4-ylmethyl]-3H-imidazo[4,5-b]pyridine]
Maximum Blood Pressure Lowering Effect ([2]; Amount 3 mg): -38%
Maximum Blood Pressure Lowering Effect ([3]; 0.3 mg/kg): -9%
Maximum Blood Pressure Lowering Effect ([3]; 1 mg/kg): -12%
Binding Inhibition [1]: 94.6%

CCCCc1nc2cc(-c3cc[n+]([O-])cc3)c(C)nc2n1Cc1ccc(-c2ccccc2-c2nn[nH]n2)cc1 [Example 7, 2-Butyl-5-methyl-6-(1-oxy-pyridin-4-yl)-3-[2'-(1H-tetrazol-5-yl)-biphenyl-4-ylmethyl]-3H-imidazo[4,5-b]pyridine]
Binding Inhibition [1]: 95.5%

CCCCc1nc(Cl)c(CO)n1Cc1ccc(-c2ccccc2-c2nn[nH]n2)cc1 [Losartan (Dup 753), Losartan, reference compound]
Maximum Blood Pressure Lowering Effect ([4]; 3 mg/kg): -30%
Maximum Blood Pressure Lowering Effect ([4]; 10 mg/kg): -46%
Maximum Blood Pressure Lowering Effect ([5]; 0.5 hr): -11.0%
Maximum Blood Pressure Lowering Effect ([5]; 1 hr): -12.3%
Maximum Blood Pressure Lowering Effect ([5]; 2 hr): -12.8%
Maximum Blood Pressure Lowering Effect ([5]; 4 hr): -9.9%
Maximum Blood Pressure Lowering Effect ([5]; 6 hr): -10.1%
Maximum Blood Pressure Lowering Effect ([5]; 8 hr): -8.2%
time for which the maximum blood pressure lowering effect lasted after the administration ([5]; Table 3, present compounds 1.0 mg, control compound 3 mg): up to 2 hours
Maximum Blood Pressure Lowering Effect ([2]; Amount 10 mg): -27%
Maximum Blood Pressure Lowering Effect ([3]; 3 mg/kg): -13%
Maximum Blood Pressure Lowering Effect ([3]; 10 mg/kg): -23%
Binding Inhibition [1]: 48.0%
